The test system of data set [1] is model animals. As to conditions: oral administration for three days; cited from earlier work.
The subject of data set [2] is healthy participants. Particulars: Phase 1, healthy participants; cited from earlier work.
Data set [3] deals with mouse models. Particulars: cited from earlier work.
Data set [4] is described as follows: In vitro liver microsome stability. Type of data set: in vitro ADME. As to conditions: liver microsomes, NADPH, 37° C. The protocol:
A 5 mM MgCl2 100 mM K-Mg buffer solution was pre-heated. 5 μL of a 10 mM compound and a reference stock solution were added to 95 μL of acetonitrile (ACN) to prepare a spiked solution. 1.5 μL of a 500 µM spiked solution and 18.75 μL of 20 mg/mL liver microsomes were added to 479.8 μL of the K-Mg buffer solution. NADPH was dissolved in the K-Mg-buffer solution to prepare an NADPH stock solution ([…]). At different time points (0, 5, 15, 30 and 45 minutes), 30 μL of a 1.5 μM spiked solution containing the microsomes was evenly dropped into an assay plate. The plate was preincubated at 37° C. for 5 minutes. At 0 min, 200 μL of ACN containing IS (internal standard, tolbutamid/terfenadine) was added to the wells, and then 15 μl of the NADPH stock solution (6 mM) was added. For other time points, 15 μL of the NADPH stock solution (6 mM) was added to the wells to initiate the reaction and start the timing. At 5, 15, 30 and 45 min, the reaction was stopped by adding 200 μL of ACN containing IS to the corresponding wells of the plate. After quenching, the plate was shaken at 600 rpm for 10 minutes and then centrifuged at 4000 rpm for 50 minutes. 80 μL of the supernatant from each well was transferred to a 96-well sample plate containing 160 μL of pure water for UPLC/MS/MS analysis.
(Liver microsomes are a subcellular fraction often used to study metabolism.)

For the compound `NC(CO)(CO)CO.O=C(COc1ccc(Cl)c(F)c1)NC12CCC(NC(=O)COc3ccc(Cl)c(F)c3)(CC1)[C@@H](OCOP(=O)([O-])O)C2.[Na+]` [ABBV-CLS-7262], the “brain function of model animals” value in data set [1] is “restored to youthful levels”.
`O=C(COc1ccc(Cl)cc1)NC12CC(c3nnc([C@H]4C[C@@H](OC(F)(F)F)C4)o3)(C1)C2` [DNL-343]: the safety and tolerability entry in data set [2] is “demonstrated its safety and tolerability”.
`O=C(COc1ccc(Cl)cc1)NC1CCC(NC(=O)COc2ccc(Cl)cc2)CC1` (stereo not shown) [ISRIB]: the “long-term memory in mouse models” value in data set [3] was “improve long-term memory”.
In turn, `O=C(c1ccc(F)cc1)C1CCN(CCn2c(=O)[nH]c3ccccc3c2=O)CC1` [Ketanserin, reference compound] gave a half-life at 1 µM in data set [4] of 36.8 min.

One may read the half-life as the time in which the quantity being followed falls by half. A high value points to slow decline.
